Laboratory results from patent publication US20260248842A1, “METHOD FOR TRANSIENT ACIDIFICATION OF WOUNDS” (SePRO Corporation, priority 2023, published 2026).

Test: Early studies: permeation and transient acidification of pig skin
Settings: same amounts of ammonia equivalents and sulfuric acid in comparison solutions

N.N.O=S(=O)(O)O [ammonium sulfate]
permeation of pig skin and transient acidification: neither of the acidified ammonium salts solutions permeated pig skin
